The text below walks through data of patent publication US12036298B2, “Skin care composition and method for treating post-acne marks” (The Procter & Gamble Company, priority 2021, dated 2024).

For orientation: solubility means how much of the substance goes into solution per volume. A low value points to a poorly soluble substance.

Values after ≈ are worked out from the molar mass of the structure shown.

A short description of data set [1]: Fraction of p-coumaric acid present as conjugate base (acid dissociation) by pH. The format is physicochemical. Particulars: pH 3. An excerpt:
(§1) The compositions herein include one or more solubilizers and/or co-solvents to help solubilize the HCA. […] Without being limited by theory, it is believed that the decreased solubility of an HCA at lower pH is due to reduced ability of the HCA to undergo the acid dissociation that forms the conjugate base species observed at higher pH levels. At pH 7, p-coumaric acid exists at approximately 99.6% in its base form; whereas at pH 3, the conjugate base form is only present at approximately […]. As a result of its relatively poor solubility, HCAs can form crystals in an aqueous, low-pH skin care composition. The HCA crystals may impart an undesirable feel to the composition during use (e.g., a rough or grainy feel). HCA crystal formation may also lead to a decrease in the efficacy of the HCA and/or other ingredients in the composition, and/or create an undesirable consumer perception of the skin care composition or manufacturer (e.g., poor quality).

Data set [2] in a line: physchem. The following applies: for solubility: 20 °C. The format is physicochemical.
Excerpt: as §1
In order to avoid the formation of HCA crystals in the present low-pH compositions, the HCA should have a solubility greater than the intrinsic solubility limit of the composition. […] In this example the HCA would likely crystalize. […] See, Bevill, et al., Polymorphic Cocrystals of Nutraceutical Compound p-Coumaric Acid with Nicotinamide: Characterization, Relative Solid-State Stability, and Conversion to Alternate Stoichiometries, Cryst. Growth Des. 2014, 14, 3, 1438-1448; 2014.

For the compound `O=C(O)/C=C/c1ccc(O)cc1` [p-coumaric acid], in data set [1], the “conjugate base form present” value was “approximately 13.4%”. In addition, the solubility in data set [2] (pH 3, aqueous buffer) is 4000 µg/mL (≈ 24.4 mM); in data set [2] (pH 7, aqueous buffer), about 345000 µg/mL (≈ 2100 mM).
hydroxycinnamic acid [HCA]: the intrinsic solubility in data set [2] (pH 3.8) was found to be 6800 µg/mL.
